Experimental data reported in patent US6284461A, “Use of inhibitors in reporter assays” (priority 1998, dated 2001).
“Also recorded” adds a separate entry of the source.

Columns and labels:
[1] = biological target: T1, cytosolic beta-lactamase reporter enzyme (Escherichia coli, UniProt P62593); experiment: Inhibition of cytosolic beta-lactamase reporter activity in live Jurkat cells, CMV promoter (Example II); assay type: cell-based; conditions: 300 μM inhibitor, one hour at 37° C.
T1 construct: CCF2/AM read-out
T1 sequence (P62593 24-286 limits assumed): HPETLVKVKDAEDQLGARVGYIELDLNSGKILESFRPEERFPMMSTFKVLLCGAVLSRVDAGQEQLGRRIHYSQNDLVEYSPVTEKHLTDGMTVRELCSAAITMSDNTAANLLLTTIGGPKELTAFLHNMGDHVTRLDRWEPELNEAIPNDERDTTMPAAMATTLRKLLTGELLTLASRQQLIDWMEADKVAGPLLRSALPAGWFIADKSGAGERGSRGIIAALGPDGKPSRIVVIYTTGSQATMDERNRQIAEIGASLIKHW
Method: (§1) One day before the assay, CHO cells (an adherent cell line) expressing a cytosolic beta-lactamase reporter gene (WO 96/30540 to Tsien et al., published Oct. 3, 1996)) under control of a G-protein coupled receptor (GPCR) were plated in six clear-bottom 96-well microtiter plates at 75% confluency. The cells in half of the wells were stimulated overnight with agonist to the GPCR. Thus, these cells expressed high levels of the reporter enzyme encoded by the reporter gene. The other half of the cells were maintained without agonist in media having dialyzed fetal calf serum. This population is representative of cells with only background levels of beta-lactamase expression. […] After thirty minutes of incubation, the fluorescence from the wells was determined using a microtiter plate fluorimeter with excitation at 395/20nm and emission at 460/40nm and 530/30nm. The raw fluorescence emission values were corrected for the signal from wells without cells. […]
Jurkat cells (a non-adherent cell line) expressing a cytosolic beta-lactamase reporter enzyme (WO 96/30540 to Tsien et al., published Oct. 3, 1996) under the control of the constitutively active cytomegalovirus early promoter (CMV promoter) were incubated with three inhibitors: clavulanic acid, imipenem and HOB-1-70. […] Cells were treated for one hour at 37° C., after which beta-lactamase reporter activity was assessed as in Example I (FIG. 2).

[2] = test system: background beta-lactamase activity (cytosolic); experiment: Background beta-lactamase activity in CHO reporter cells after blocking enzyme synthesis (Example I); assay type: cell-based; conditions: 40 μg/ml cycloheximide, low and high expressing CHO cells, even after 5 hours
Method: as §1, with “expression. These unstimulated cells expressed the reporter enzyme at levels lower than in the stimulated cells. After sixteen hours, the media was removed, the stimulated cells and the unstimulated cells were washed once by replacing the culture media by aspiration with an equal volume of phosphate buffered saline and then treated with 40 μg/ml cycloheximide in RPMI medium 1640 with 0.1% bovine serum albumin (BSA).” for “expression.”

[3] = biological target: T1, cytosolic beta-lactamase reporter enzyme; experiment: Irreversibility of intracellular beta-lactamase inhibition in CHO GPCR reporter cells (Example IV); assay type: cell-based; conditions: washed
[4] = test system: cytosolic beta-lactamase reporter; experiment: Wash-out of inhibitor from Jurkat C2 cells (M1 receptor, NF-AT beta-lactamase reporter) (Example III); assay type: cell-based
Method: as §1
These studies used a Jurkat cell clone (referred to as "C2 cells" ) containing the M1 -receptor and a cytosolic beta-lactamase reporter gene (WO 96/30540 to Tsien et al., published Oct. 3, 1996)) regulated by a NF-AT response element. […] Higher beta-lactamase activity was detected in the cells as the time after the inhibitor was washed out of the cells increased.

[5] = biological target: T1, cytosolic beta-lactamase reporter enzyme; experiment: Agonist titration in CHO GPCR reporter cells with or without inhibitor pretreatment (Example VI); assay type: cell-based
[6] = biological target: T2, cytosolic beta-lactamase (Escherichia coli, UniProt P62593); experiment: Inhibitor added together with CCF2/AM in CHO nuclear receptor beta-lactamase reporter cells (Example IX); assay type: cell-based
T2 construct: CCF2/AM read-out
T2 sequence (P62593 24-286 limits assumed): as above

[7] = test system: cytosolic beta-lactamase activity; experiment: Background versus de novo beta-lactamase activity in CHO GPCR reporter cells after inhibitor pretreatment (Example V); assay type: cell-based; conditions: 300 μM clavulanic acid sixteen hours, washed, unstimulated, three hours
Method: as §1, with “expression. These unstimulated cells expressed the reporter enzyme at levels lower than in the stimulated cells. After sixteen hours, the media was removed, the stimulated cells and the unstimulated cells were washed once by replacing the culture media by […] (BSA). Because CHO cells are adherent, aspiration is the preferred method of removing culture media, which is then replaced with wash media or wash solution.” for “expression.”

[8] = test system: beta-lactamase; conditions: cited from earlier work

| Compound | reduction of cytosolic beta-lactamase reporter activity [1] | ratio values (460/40nm over 530/30nm emission) [2] | persistence of inhibition of intracellular beta-lactamase reporter enzyme ([3]; 300 μM clavulanic acid pretreatment, cycloheximide) | ratio values (460/40nm over 530/30nm emission) ([3]; 300 μM clavulanic acid sixteen hours, 40 μg/ml cycloheximide, low and high expressing cells, even after five hours) | beta-lactamase activity, no-wash control ([4]; 100 microM clavulanic acid for sixteen hours, inhibitor present throughout, with or without 100 microM carbacol) | de novo beta-lactamase activity after wash-out of inhibitor ([4]; 100 microM clavulanic acid sixteen hours, washed once, 0-3 hours after wash, then 100 microM carbacol for three hours) | background beta-lactamase activity in agonist assay ([5]; CHO cells pretreated with 300 μM clavulanic acid sixteen hours, washed, three hours agonist) | signal-to-noise ratio of agonist assay ([5]; cells pretreated with clavulanic acid versus untreated) | ratio of fluorescence from stimulated cells over unstimulated cells ([6]; 16.7 microμ clavulanic acid present) [fold] | improvement in signal-to-noise ratio ([6]; 16.7 microμ clavulanic acid versus absence of inhibitor) | background (unstimulated) ratio levels ([6]; CHO nuclear receptor reporter cells, 16.7 microμ clavulanic acid present during CCF2/AM loading) | beta-lactamase activity in stimulated cells ([6]; agonist-stimulated CHO cells, 16.7 microμ clavulanic acid present during CCF2/AM loading) | background beta-lactamase reporter activity after pretreatment [7] | molecules of inhibitor hydrolyzed on average before the beta-lactamase is irreversibly inactivated ([8]; beta-lactamase used in the cell based assays, source not given) | reversibility of beta-lactamase inhibition ([8]; literature (Bulychev et al. 1995; Knowles 1985)) |
| --- | --- | --- | --- | --- | --- | --- | --- | --- | --- | --- | --- | --- | --- | --- | --- |
| C[C@@H](O)[C@H]1C(=O)N2C(C(=O)O)=C(SCCN=CN)C[C@H]12 [imipenem] | did not have a similar effect |  |  |  |  |  |  |  |  |  |  |  |  |  |  |
| C[C@@H]1C[C@@H]([C@H](O)CC2CC(=O)NC(=O)C2)C(=O)[C@@H](C)C1 [cycloheximide] |  | above 0.2 |  |  |  |  |  |  |  |  |  |  |  |  |  |
| O=C(O)[C@H]1/C(=C/CO)O[C@@H]2CC(=O)N21 [clavulanic acid] | reduced the reduced beta-lactamase activity in these cells to levels found in cells that do not have the reporter; also recorded: essentially reduced reporter beta-lactamase activity to values found for a naive Jurkat population |  | irreversibly inhibited; also recorded: remains inhibited for at least five hours | about 0.2 | beta-lactamase activity, both residual and synthesized de novo, was reduced | Stimulation of cells, even immediately after the wash, results in de novo synthesis of beta-lactamase that can be detected | much lower | the signal-to-noise ratio was improved | 32 | almost a three-fold improvement | 0.090±0.015 | did not change significantly | effective means of lowering the background beta-lactamase reporter activity; also recorded: readily inhibited | about 100 molecules | irreversible |
